In brackets after ≈: the same amount, converted by molar mass. Positions of bridges follow the written chain, without caps; N, C: chain ends. Non-standard residues stand in square brackets, D forms with d. Residues, ends and D or L forms follow the SMILES beside them. *: point of attachment. X13 = O=C(Cc1ccc(Cl)cc1Cl)*; X19 = Cc1cc(Cl)cc(C(=O)*)c1; Octanoyl = CCCCCCCC(=O)*; Dab = NCC[C@H](N)C(=O)O; Abu = CC[C@H](N)C(=O)O; Dap = NC[C@H](N)C(=O)O
What was measured:
Acinetobacter baumannii = test system: Acinetobacter baumannii
How it was run: (§1)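 Broth microdilution MICs following CLSI standards in cation-adjusted Mueller-Hinton broth. Lipopeptides tested as TFA salts; polymyxin B sulphate served as control.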

Enterobacter cloacae = test system: Enterobacter cloacae
How it was run: as §1

Klebsiella pneumoniae = test system: Klebsiella pneumoniae
How it was run: as §1

Pseudomonas aeruginosa = test system: Pseudomonas aeruginosa
How it was run: as §1

P. aeruginosa ATCC 27853 = test: In vivo efficacy in mouse blood infection model (neutropenic Swiss mice); settings: compound, free base 4 mg/kg intravenously 2 h after inoculation, blood at 4 h
Protocol: P. aeruginosa ATCC 27853, A. baumannii ATCC 19606 and K. pneumoniae FADDI-KP032 were subcultured on nutrient agar plates. One colony of each bacterial strain was dispersed in 10-mL CAMHB and incubated overnight. On day 2, an aliquot (0.2 mL) of each overnight culture suspension was dispersed in 20-mL CAMHB and incubated for 1.5-2.5 h for production of early log-phase growth bacterial culture. The bacteria in the early log-phase growth suspension were concentrated by centrifugation (3,220 g for 10 min) and re-suspended in sterile 0.9% saline for inoculation into mice. The bacterial cell concentration (colony forming unit [CFU]/mL) in saline was estimated by determining the optical density (OD) of the suspension at 600 nm, and confirmed by plating the suspension on nutrient agar plates. Swiss mice (22 to 28 g) were rendered neutropenic by injecting two doses of cyclophosphamide intraperitoneally, −4 day (150 mg/kg) and −1 day (100 mg/kg) prior to inoculation. Bloodstream infection was established by injecting intravenously 50 μL of early log-phase bacterial suspension (10^8-10^9 CFU/mL). The exact injection volume for each bacterial suspension was calculated based upon the OD value of the bacterial suspension and the desired inoculum for each isolate.
Solutions for administration of colistin, polymyxin B or the compounds were prepared at a concentration of 1 mg (free base) per mL in sterile 0.9% saline. At 2 h after inoculation, a mouse in the treatment groups was injected intravenously with one of the above solutions at 4 μL/g body weight (BW) (i.e. free base 4 mg/kg BW), while the same volume of saline was injected into the control mice. At 0 h or at 4 h after the administration of antibacterial drug or saline (control), animals were euthanised by inhalation of overdose isoflurane. The skin on the chest and fore-paws of each animal was thoroughly cleansed with 70% ethanol and Betadine®. The blood was collected via cardiac puncture using a 1-mL syringe rinsed with heparin (5,000 IU/mL), diluted serially in sterile 0.9% saline and plated on nutrient agar plates using a spiral plater.
The agar plates were incubated at 37° C. overnight. The bacterial colonies on the plate were counted and CFU/mL of the blood was calculated. The log10 CFU/mL of blood in each mouse was calculated. The in vivo activity of the compounds against the bacteria was calculated as the difference of the log10 CFU/mL values between the treated mice and the control mice at 4 h (Δ log=log10 (treated)CFU/mL−log10 (control)CFU/mL).
Any compound showing a decrease in bacterial loading (Δ log) of ≥2 at 4 h is considered to have good in vivo efficacy in this initial screening model.

| Compound | MIC (Acinetobacter baumannii) [µg/mL] | Minimum inhibitory concentration, Ab A ATCC 17978 (Acinetobacter baumannii) [µg/mL] | Minimum inhibitory concentration, Ab ATCC 19606 (Acinetobacter baumannii) [µg/mL] | Minimum inhibitory concentration, Ab FADDI-AB034 (Acinetobacter baumannii) [µg/mL] | Minimum inhibitory concentration, Ec FADDI-EC001 (Enterobacter cloacae) [µg/mL] | Minimum inhibitory concentration, Ec FADDI-EC003 (Enterobacter cloacae) [µg/mL] | Minimum inhibitory concentration, Ec FADDI-EC006 (Enterobacter cloacae) [µg/mL] | MIC (Klebsiella pneumoniae) [µg/mL] | MIC (Pseudomonas aeruginosa) [µg/mL] | Minimum inhibitory concentration, Pa ATCC 27853 (Pseudomonas aeruginosa) [µg/mL] | Minimum inhibitory concentration, Pa FADDI-PA022 (Pseudomonas aeruginosa) [µg/mL] | Minimum inhibitory concentration, Pa FADDI-PA025 (Pseudomonas aeruginosa) [µg/mL] | Δ log (Treated-Control at 4 h) (P. aeruginosa ATCC 27853) [log10 CFU/mL] |
| --- | --- | --- | --- | --- | --- | --- | --- | --- | --- | --- | --- | --- | --- |
| CC[C@@H]1NC(=O)[C@@H](CC(C)C)NC(=O)[C@H](CCN)NC(=O)[C@@H](NC(=O)[C@H](CN)NC(=O)[C@@H](NC(=O)[C@H](CCN)NC(=O)c2cc(C)cc(Cl)c2)[C@@H](C)O)CCNC(=O)[C@H]([C@@H](C)O)NC(=O)[C@H](CCN)NC(=O)[C@H](CCN)NC1=O [Compound 114] (X19-[Dab]T[Dap][Dab][Dab][dL][Abu][Dab][Dab]T; lactam 4-C) | 2 (≈ 1.75 µM) | 0.5 (≈ 0.439 µM) | 2 (≈ 1.75 µM) | 0.5 (≈ 0.439 µM) | 0.25 (≈ 0.219 µM) | 0.25 (≈ 0.219 µM) | 0.25 (≈ 0.219 µM) | 0.25 (≈ 0.219 µM) | 0.5 (≈ 0.439 µM) | 0.5 (≈ 0.439 µM) | 1 (≈ 0.877 µM) | 1 (≈ 0.877 µM) | −2.57 |
| CC[C@@H]1NC(=O)[C@@H](CC(C)C)NC(=O)[C@H](CCN)NC(=O)[C@@H](NC(=O)[C@H](CN)NC(=O)[C@@H](NC(=O)[C@H](CCN)NC(=O)Cc2ccc(Cl)cc2Cl)[C@@H](C)O)CCNC(=O)[C@H]([C@@H](C)O)NC(=O)[C@H](CCN)NC(=O)[C@H](CCN)NC1=O [Compound 70] (X13-[Dab]T[Dap][Dab][Dab][dL][Abu][Dab][Dab]T; lactam 4-C) | 0.5 (≈ 0.426 µM) | 0.5 (≈ 0.426 µM) | 0.5 (≈ 0.426 µM) | 1 (≈ 0.852 µM) | 0.5 (≈ 0.426 µM) | 0.25 (≈ 0.213 µM) | 0.5 (≈ 0.426 µM) | 0.25 (≈ 0.213 µM) | 1 (≈ 0.852 µM) | 1 (≈ 0.852 µM) | 1 (≈ 0.852 µM) | 2 (≈ 1.7 µM) | −3.11 |
| CCCCCCCC(=O)N[C@@H](CCN)C(=O)N[C@H](C(=O)N[C@@H](CN)C(=O)N[C@H]1CCNC(=O)[C@H]([C@@H](C)O)NC(=O)[C@H](CCN)NC(=O)[C@H](CCN)NC(=O)[C@H](CC)NC(=O)[C@@H](Cc2ccccc2)NC(=O)[C@H](CCN)NC1=O)[C@@H](C)O [Compound 130] (Octanoyl-[Dab]T[Dap][Dab][Dab][dF][Abu][Dab][Dab]T; lactam 4-C) | 0.25 (≈ 0.218 µM) | 0.25 (≈ 0.218 µM) | 0.25 (≈ 0.218 µM) | 0.25 (≈ 0.218 µM) | 0.25 (≈ 0.218 µM) | 0.25 (≈ 0.218 µM) | 1 (≈ 0.872 µM) | 0.5 (≈ 0.436 µM) | 0.5 (≈ 0.436 µM) | 0.5 (≈ 0.436 µM) | 2 (≈ 1.74 µM) | 2 (≈ 1.74 µM) | −3.66 |
